Data from US20250197392A1, “CRYSTALLINE FORMS OF AN INHIBITOR OF THE MENIN/MLL INTERACTION” (JANSSEN PHARMACEUTICA NV, priority 2022, published 2025).

Assays:
[1] = system: OCI-AML3 cells; experiment: Proliferation assay (spheroid assay) OCI-AML3; assay type: cell-based, human; conditions: 8 days, NPM1c mutated cell line; read-out: spheroid assay_OCI-AML3 IC50
Procedure: (§1) The anti-proliferative effect of menin/MLL protein/protein interaction inhibitor test compounds was assessed in human leukemia cell lines. The cell line MOLM14 harbors a MLL translocation and expresses the MLL fusion protein MLL-AF9, respectively, as well as the wildtype protein from the second allele. OCI-AML3 cells that carry the NPM1c gene mutation were also tested. […] KO-52 was used as a control cell line containing two MLL (KMT2A) wildtype alleles in order to exclude compounds that display general cytotoxic effects.
(§2) MOLM14 cells were cultured in RPMI-1640 (Sigma Aldrich) supplemented with 10% heat-inactivated fetal bovine serum (HyClone), 2 mM L-glutamine (Sigma Aldrich) and 50 μg/ml gentamycin (Gibco). […]
(§3) In order to assess the anti-proliferative effects, 200 MOLM14 cells, 200 OCI-AML3 cells or 300 KO-52 cells were seeded in 200 μl media per well in 96-well round bottom, ultra-low attachment plates (Costar, catalogue number 7007). […] Spheroid like growth was measured in real-time by live-cell imaging (IncuCyteZOOM, Essenbio, 4× objective) acquiring images at day 8. Confluence (%) as a measure of spheroid size was determined using an integrated analysis tool.
(§4) In order to determine the effect of the test compounds over time, the confluence in each well as a measure of spheroid size, was calculated. […]
(§5) Absolute IC50 values were calculated as percent change in confluence as follows: […]

[2] = molecular target: Menin/MLL (terbium chelate-labeled menin, FITC-MBM1 peptide) (Homo sapiens (Human), UniProt O00255); experiment: Menin/MLL homogenous time-resolved fluorescence (HTRF) assay; assay type: binding; conditions: 30 min incubation of compound with labeled menin
Procedure: To an untreated, white 384-well microtiter plate was added 40 nL 200× test compound in DMSO and 4 μL 2× terbium chelate-labeled menin (vide infra for preparation) in assay buffer (40 mM Tris·HCl, pH 7.5, 50 mM NaCl, 1 mM DTT (dithiothreitol) and 0.05% Pluronic F-127). After incubation of test compound and terbium chelate-labeled menin for 30 min at ambient temperature, 4 μL 2×FITC-MBM1 peptide (FITC-β-alanine-[…]-NH2) (“FITC” means fluorescein isothiocyanate) in assay buffer was added, the microtiter plate centrifuged at 1000 rpm for 1 min and the assay mixtures incubated for 15 min at ambient temperature. The relative amount of menin-FITC-MBM1 complex present in an assay mixture is determined by measuring the homogenous time-resolved fluorescence (HTRF) of the terbium/FITC donor/acceptor fluorphore pair using an EnVision microplate reader (ex. 337 nm/terbium em. 490 nm/FITC em. 520 nm) at ambient temperature. The degree of fluorescence resonance energy transfer (the HTRF value) is expressed as the ratio of the fluorescence emission intensities of the FITC and terbium fluorophores (F^em 520 nm/F^em 490 nm). […]
Compound potencies were determined by first calculating % inhibition at each compound concentration according to equation 1: […]

[3] = system: MEIS1 mRNA expression; experiment: MEIS1 mRNA expression assay (Quantigene Singleplex) in MOLM14 cells; assay type: cell-based, human; conditions: 48 hours incubation
Procedure: MEIS1 mRNA expression upon treatment of compound was examined by Quantigene Singleplex assay (Thermo Fisher Scientific). This technology allows for direct quantification of mRNA targets using probes hybridizing to defined target sequences of interest and the signal is detected using a Multimode plate reader Envision (PerkinElmer). The MOLM14 cell line was used for this experiment. Cells were plated in 96-well plates at 3,750 cells/well in the presence of increasing concentrations of compounds. After incubation of 48 hours with compounds, cells were lysed in lysis buffer and incubated for 45 minutes at 55° C. Cell lysates were mixed with human MEIS1 specific capture probe or human RPL28 (Ribosomal Protein L28) specific probe as a normalization control, as well as blocking probes. Cell lysates were then transferred to the custom assay hybridization plate (Thermo Fisher Scientific) and incubated for 18 to 22 hours at 55° C. Subsequently, plates were washed to remove unbound materials followed by sequential addition of preamplifiers, amplifiers, and label probe. Signals (=gene counts) were measured with a Multimode plate reader Envision. IC50s were calculated by dose-response modelling using appropriate software. […] Fold changes were calculated by dividing the normalized values for the treated samples by the normalized values for the DMSO treated sample. […]

[4] = Dynamic vapor sorption (DVS) moisture sorption analysis; assay type: physicochemical; conditions: after 2 cycles of vapor adsorption/desorption
Procedure: The moisture sorption analysis (DVS) was performed using a ProUmid GmbH & Co. KG Vsorp Enhanced dynamic vapor sorption apparatus. The moisture profile was evaluated by monitoring vapor adsorption/desorption over the range of 0 to 90% relative humidity at 25° C. The sample weight equilibrium criteria were set at ≤0.010% change in 45 min with minimum and maximum time of acclimation at 50 min and 120 min, respectively. The moisture profile consisted of 2 cycles of vapor adsorption/desorption.

[5] = system: MOLM14 cells; experiment: Proliferation assay (spheroid assay) MOLM14; assay type: cell-based, human; conditions: 8 days, MLL-AF9 cell line; read-out: spheroid assay_MOLM14 IC50
Procedure: as §1, §2, §3, §4, §5

[6] = system: KO-52 cells; experiment: Proliferation assay (spheroid assay) KO-52 control cell line; assay type: cell-based, human; conditions: 8 days, MLL wildtype control cell line; read-out: spheroid assay_KO-52 IC50
Procedure: as §1, §2, §3, §4, §5

Menin/MLL (terbium chelate-labeled menin, FITC-MBM1 peptide), sequence (O00255 other isoform, or with tags, fused parts or gaps): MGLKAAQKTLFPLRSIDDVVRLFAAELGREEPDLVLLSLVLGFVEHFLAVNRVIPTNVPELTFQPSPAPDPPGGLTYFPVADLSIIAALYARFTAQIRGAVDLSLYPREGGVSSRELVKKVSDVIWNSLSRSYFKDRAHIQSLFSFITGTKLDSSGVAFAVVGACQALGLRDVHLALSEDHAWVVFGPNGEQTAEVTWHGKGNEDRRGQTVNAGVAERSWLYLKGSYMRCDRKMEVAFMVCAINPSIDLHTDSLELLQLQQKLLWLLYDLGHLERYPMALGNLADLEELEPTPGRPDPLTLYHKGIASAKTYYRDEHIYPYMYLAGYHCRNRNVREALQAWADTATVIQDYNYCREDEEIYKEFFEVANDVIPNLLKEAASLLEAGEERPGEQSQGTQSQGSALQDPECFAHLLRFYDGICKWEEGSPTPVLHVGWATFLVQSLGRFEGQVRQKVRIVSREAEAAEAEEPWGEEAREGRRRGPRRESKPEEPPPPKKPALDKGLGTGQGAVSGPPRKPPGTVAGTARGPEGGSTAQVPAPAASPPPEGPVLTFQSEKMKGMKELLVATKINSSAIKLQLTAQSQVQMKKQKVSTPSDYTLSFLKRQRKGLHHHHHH

IC50 [1]: 70 nM
IC50 [2]: 0.024 nM
IC50 [3]: 11 nM
IC50 [5]: 13 nM
Structure (SMILES): CC(=O)N1CCC(CN2CC[C@@H](Cc3cn(-c4ccc(F)cc4C(=O)N(C)C(C)C)c4cncc(C)c34)C2)CC1 [Compound 51a]
solid-state form stability after DVS test (XRPD) [4]: No indication of a solid-state form change was observed
IC50 [6]: 1200 nM
